We go through six molecules from US20050014681A1, “Medicinal compositions for nasal absorption” (priority 2001, published 2005).

The subject of one data set is blood glucose level. Briefly: Blood glucose level decreasing effect of nasally administered incretin hormones in glucose-loaded rats. The data set is classed as in vivo. As to conditions: nasal powder about 100 μg polypeptide, 15 min after dosing, 10 min after 0.5 g/kg i.v. glucose, control 196. The method, then:
As for the composition containing incretin hormones, the blood glucose level fell as compared with the control group. Moreover, also the incretin hormones, the blood glucose level fell when composition containing 5% corn starch is added compared with when 5% corn starch is not added.

Data set [1] is described as follows: Absorbability of powder preparation for nasal administration using cynomolgus monkeys, Test-1 (RIA). As to conditions: cynomolgus monkey, in vivo, sc, 13 ug/kg. The method, then:
(§1) An anti-rabbit IgG goat serum was then added, and the mixture was allowed to stand for 1 hour at 4° C. The resulting sample was centrifuged and the radioactivity (gamma-ray) of the precipitate was measured by a gamma counter.
Each additive was added to the pharmaceutical composition in amounts of 0.5%, 1.0%, 10% and 50% with respect to the total weight of the preparation.
The bioavailability was determined by comparing the AUC after nasal administration with the AUC after subcutaneous administration.

Data set [2] can be described thus: Absorbability of powder preparation for nasal administration using dogs (RIA). As to conditions: beagle, dog, in vivo, 50 ug/kg. Here is the method: as §1
As a control, one additive-free sample of the composition for nasal administration was prepared.

The next data set can be described thus: in vivo. As to conditions: male, SD (Crj: CD), rat, plasma. Here is the method: as §1
Male SD rats, aged 7 to 9 weeks and weighing about 250 g (Crj: CD, Charles River Japan Inc.,), were kept in a metal cage with a day/night cycle of 12 hours while maintaining the temperature at 22±5° C. and the humidity at 30 to 70%. The rats were allowed to feed freely on solid feed and tap water and were fasted for 24 hours prior to the test (3 animals per group).
[…] The blood was collected into a tube containing anticoagulant and enzyme inhibitor at 0, 5, 10, 15, 20, 30, 60, and 90 minutes after administration and was centrifuged to obtain plasma. […] For subcutaneous administration, the sample solution for subcutaneous administration (about 15 μg/mL) was subcutaneously administered in the back of the rats using a syringe at a dosage of 1 mL/kg.

For data set [3] the following is noted: background statement; cited from earlier work.

As to “[Lys^26, ε-NH{γ-Glu(N-α-palmitoyl)}]-GLP-1 (7-37)”, the “blood glucose level (Mean)” value with blood glucose level (composition: 5% corn starch) came to 154 mg/dL; in the data set on blood glucose level (composition: No additive), 184 mg/dL.

As for `CC[C@H](C)[C@H](NC(=O)[C@H](Cc1ccccc1)NC(=O)[C@H](CCC(=O)O)NC(=O)[C@H](CCCCN)NC(=O)[C@H](C)NC(=O)[C@H](C)NC(=O)[C@H](CCC(N)=O)NC(=O)CNC(=O)[C@H](CCC(=O)O)NC(=O)[C@H](CC(C)C)NC(=O)[C@H](Cc1ccc(O)cc1)NC(=O)[C@H](CO)NC(=O)[C@H](CO)NC(=O)[C@@H](NC(=O)[C@H](CC(=O)O)NC(=O)[C@H](CO)NC(=O)[C@@H](NC(=O)[C@H](Cc1ccccc1)NC(=O)[C@@H](NC(=O)CNC(=O)[C@H](CCC(=O)O)NC(=O)[C@H](C)NC(=O)[C@@H](N)Cc1c[nH]cn1)[C@@H](C)O)[C@@H](C)O)C(C)C)C(=O)N[C@@H](C)C(=O)N[C@@H](Cc1c[nH]c2ccccc12)C(=O)N[C@@H](CC(C)C)C(=O)N[C@H](C(=O)N[C@@H](CCCCN)C(=O)NCC(=O)N[C@@H](CCCNC(=N)N)C(N)=O)C(C)C` [GLP-1(7-36)NH2, GLP-1 (7-36)NH2], the total exposure AUC(0-inf) in data set [1] amounted to 3.23 ± 0.5 ng·h/mL; in data set [2], 5.15 ± 5.13 ng·h/mL. In addition, the Cmax was 6.37 ± 2.54 ng/mL in data set [1]; 20.4 ± 3.48 ng/mL in data set [2]; 4.7 ± 3.28 ng/mL in the data set “in vivo” (inhaled or intranasal, 1 ug/kg); 6.68 ± 0.86 ng/mL in the data set “in vivo” (sc, 15 ug/kg). Further, the area under the curve (AUC) in the data set “in vivo” (inhaled or intranasal, 1 ug/kg) was determined as 2.47 ± 1.44 ng·h/mL; in “in vivo” (sc, 15 ug/kg), 3.82 ± 0.58 ng·h/mL.

Consider Exendin-4, for which the results for the “blood glucose level (Mean)” value in the data set with blood glucose level (composition: 5% corn starch) and in the data set with blood glucose level (composition: No additive) were 151 mg/dL and 166 mg/dL, respectively.

Regarding GLP-1 (7-37) [GLP-1(7-37)], the figures for the “blood glucose level (Mean)” value in the data set with blood glucose level (composition: 5% corn starch) and in the data set on blood glucose level (composition: No additive) were 146 mg/dL and 170 mg/dL, respectively.

Take “[Val^8]-GLP-1 (7-37) (HVEGTFTSDVSSYLEGQAAKEFIAWLVKGRG; Glucagon-like peptide 1(7-37); UniProt P01275 98-128, looked up, variant A8V) [[Val^8]-GLP-1(7-37)]”: the “blood glucose level (Mean)” value was found to be 147 mg/dL in the data set with blood glucose level (composition: 5% corn starch) and 168 mg/dL with blood glucose level (composition: No additive).

For the molecule casein, in data set [3], the “isoelectric point (pI)” value was “about 4.6”.

The term AUC(0-inf) denotes the area under the concentration-time curve extrapolated to infinity. What is called Cmax is the peak of the concentration-time curve. The AUC is concentration integrated over time.
